The test system of assay [1] is human γ-globin promoter (EGFP reporter) in K562 cells. Nature of the assay: HbF activation assay on K562 (EGFP/RFP reporter model system for screening of inducers of fetal hemoglobin). In kind it is cell-based. The following applies: 60 hours. An excerpt:
In order to test several compounds, a model system was produced based on previous findings present in the literature. The K562 erythroid-like cell lines, isolated and characterized by Lozzio & Lozzio (Blood, 45(3), pp 321-334) from a patient with chronic myelogenous leukemia in blast crisis, have been extensively employed as a useful in vitro model to study the molecular mechanism(s) regulating the expression of embryonic and fetal human globin genes, as well as for screening of new differentiation-inducing compounds. A stable cell line where reporter genes encoding green EGFP and far-red fluorescent protein red-FP are placed under the control of the human γ-globin or β-globin promoters respectively was used (see Vadolas et al, Hum. Mol. Genet. 2004, 13, 2, 223-233 for details). The modified 3-cluster also contains the upstream regulatory region called LCR. This cell line grows in suspension at 37° C. and 5% CO2 in humidified atmosphere in the following medium: DMEM, 10% foetal bovine serum, glutamine and antibiotics (penicillin and streptomycin);
The assay procedures is as follows: • Single concentration compounds or serially diluted samples are transferred to an empty assay plates by a spotter (ATS-100, EDC Biosystems, USA) in order to have a final concentration of DMSO of 0.25% in 50 μL of cell culture. Source plats contains compounds dissolved in 100% DMSO • Black, transparent bottom, 384 wells, tissue culture treated plates are used as assay plates. • Assay plates containing spotted compounds are filled with a suspension of cell in the described assay medium. The final cell concentration is of 1000 cells per well. • Cells are incubated in humidified atmosphere, 37° C.-5% CO2, for 60 hours • Cell nuclei are stained by adding 10 ul (6 μM; 1 μM final) Hoechst 33342 (Life Technologies, USA) • The cell associated intensity is read by a plate based cytometer (ACUMEN explorer, TTP Labtech, UK) • The nuclei count is used to assess the cell proliferation/death and to normalize the total EGFP/RFP intensity. HbF Activation Assay in Human Cell Line K562
The compounds of the invention were tested in the HbF activation assay on K562, as model system for screening of potential inducers of fetal hemoglobin.

Assay [2] has as its target T1, HDAC1 (Homo sapiens, UniProt Q13547).
T1 construct: made in house
Briefly: HDAC1 assay (Fluor-de-Lys fluorescent deacetylase assay). In kind it is biochemical. As to conditions: read-out: hHDAC IC50. The method, then:
The HDAC1 assay is used to quantify the histone deacetylase (HDAC) activity. The assay is performed in 384 well microtiter plates by pre-incubating serial dilutions of the compounds with a fixed concentration of HeLa nuclear extract or purified HDAC1 and then adding an acetylated lysine-containing substrate/developer that fluoresces upon deacetylation.
Reagents of the HDAC Fluorescent Activity Assay are purchased from BioMol Research Laboratories (Plymouth Meeting, Pa.) and feature the Fluor-de-Lys™ Substrate/Developer System.
TSA Stock: TSA is provided as a 10 mM stock solution in 100% dimethylsulfoxide (DMSO). […] The final concentration in the assay is 20 uM.
3 uM [final] TSA to this solution increases its ability to stop the reaction.
HDAC1 Working Solution: The HDAC1 enzyme is diluted in assay buffer prior to each use from a fresh aliquot of enzyme. The final concentration in the assay is 1-2 nM.
Compounds: Test compounds are directly transferred from a 100% DMSO solution into assay plates by spotting nanoliters of solutions by an acoustic dispenser (ATS-100, EDC biosystems, US).
HeLa cells transiently transfected with pCDNA3-HDAC1-FLAG are grown to 80% confluence on 10 cm culture dishes in DMEM, 10% Fetal bovine serum supplemented with antibiotics and glutamine. Cells are washed with 10 ml cold PBS and scraped into 2 ml of PBS. Cells are centrifuged for 5 minutes at 800×g at 4° C., washed with 30 ml PBS and resuspended in 10 ml PBS, counted, re-centrifuged and frozen at −80° C.
The frozen cell pellet is re-suspended in 1 ml of hypotonic lysis buffer (LB: 20 mM Hepes pH7.9, 0.25 mM EDTA, 10% glycerol) containing COMPLETE protease inhibitor and incubated on ice for 15 minutes, followed by homogenization on a 2-ml DounceB homogenizer (25 strokes). 150 mM KCl and 0.5% NP-40 are added to the homogenate and the solution is sonicated twice for 30 seconds (output5/6, duty cycle 90) and incubated for 1 hour at 4° C. After a 30 minutes centrifugation at 12000 rpm and 4° C. the supernatant (soluble extract) is collected and protein concentration is determined using the BIORAD assay.
Anti-FLAG M2 affinity resin (Sigma) is washed three times with TBS and twice with LB. 10 μl of the LB-washed resin/mg of protein (2-3 ug of Flagged-HDAC1) are added to the soluble extract (1 mL) and incubated overnight at 4° C. with gentle mixing. The resin is then collected by centrifugation, washed once with LB, twice with LB+0.1% NP40 and twice with elution buffer (50 mM Hepes pH 7.4, 5% glycerol, 100 mM KCl, 0.01% Triton X-100).
The concentration of purified HDAC is determined by Western blot analysis.

For assay [3], the system named is HDAC in Hela cells. Briefly: HDAC Hela Cell Based assay.

T1 sequence (Q13547 whole entry): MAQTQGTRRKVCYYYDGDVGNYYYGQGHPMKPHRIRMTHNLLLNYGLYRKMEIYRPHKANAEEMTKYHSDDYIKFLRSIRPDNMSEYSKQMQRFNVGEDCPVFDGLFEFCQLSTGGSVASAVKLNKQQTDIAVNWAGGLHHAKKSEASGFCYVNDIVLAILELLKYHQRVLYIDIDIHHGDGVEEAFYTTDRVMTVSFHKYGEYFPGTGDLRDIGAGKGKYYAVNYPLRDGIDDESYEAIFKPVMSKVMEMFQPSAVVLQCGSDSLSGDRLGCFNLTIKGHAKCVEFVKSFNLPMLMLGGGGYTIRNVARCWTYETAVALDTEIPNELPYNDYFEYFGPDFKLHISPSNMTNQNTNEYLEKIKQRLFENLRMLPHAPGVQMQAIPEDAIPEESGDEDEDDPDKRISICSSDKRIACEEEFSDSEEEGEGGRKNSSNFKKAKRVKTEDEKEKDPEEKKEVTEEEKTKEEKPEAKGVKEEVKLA

A word on the EC50: it is the concentration that produces a half-maximal response. By IC50 is commonly meant the midpoint of a concentration-inhibition curve. Compound `CCC(=O)CCCCC[C@H](NC(=O)C(C)(C)N(C)C)c1ncc(-c2cc3ccccc3nc2OC)o1` [Compound 35, (S)-2-(dimethylamino)-N-(1-(5-(2-methoxyquinolin-3-yl)oxazol-2-yl)-7-oxononyl)-2-methylpropanamide] had an EC50 in assay [1] of 100 to 1000 nM. Further, the IC50 in assay [2] and in assay [3] was less than 100 nM in each case.
In assay [1], `CCC(=O)CCCCC[C@H](NC(=O)C(=O)N(C)C)c1ncc(-c2cc3ccccc3nc2OC)o1` [Compound 36, (S)-N1-(1-(5-(2-methoxyquinolin-3-yl)oxazol-2-yl)-7-oxononyl)-N2,N2-dimethyloxalamide] displayed a 50% effective concentration (EC50) greater than 1000 nM. Besides, the concentration for half-maximal inhibition (IC50) in assay [2] and in assay [3] was 100 to 1000 nM each time.
Consider `CCC(=O)CCCCC[C@H](NC(=O)CCN(C)C)c1ncc(-c2cc3ccccc3nc2OC)o1` [Compound 38, (S)-3-(dimethylamino)-N-(1-(5-(2-methoxyquinolin-3-yl)oxazol-2-yl)-7-oxononyl)propanamide], for which, in assay [1], the EC50 fell in the range of 100 to 1000 nM. In addition, the IC50 in assay [2] and in assay [3] was less than 100 nM throughout.
With `CCC(=O)CCCCC[C@H](NC(=O)C1CCN(C)CC1)c1ncc(-c2cc3ccccc3nc2OC)o1` [Compound 39], the EC50 in assay [1] is 100 to 1000 nM. Besides, the IC50 in assay [2] and in assay [3] was less than 100 nM in each case.
`CCC(=O)CCCCC[C@H](NC(=O)c1cncs1)c1ncc(-c2cc3ccccc3nc2OC)o1` [Compound 40, (S)-N-(1-(5-(2-methoxyquinolin-3-yl)oxazol-2-yl)-7-oxononyl)thiazole-5-carboxamide] registered an EC50 in assay [1] greater than 1000 nM. The IC50 in assay [2] and in assay [3] was less than 100 nM in each case.
Consider `CCC(=O)CCCCC[C@H](NC(=O)C(=O)N(C)C)c1nnc(-c2cc3ccccc3nc2OC)o1` [Compound 45, (S)-N1-(1-(5-(2-methoxyquinolin-3-yl)-1,3,4-oxadiazol-2-yl)-7-oxononyl)-N2,N2-dimethyloxalamide], for which the EC50 in assay [1] is greater than 1000 nM. The figures for the IC50 in assay [2] and in assay [3] were less than 100 nM and 100 to 1000 nM, respectively.
Consider `CCC(=O)CCCCC[C@H](NC(=O)C(=O)N1CCN(C)CC1)c1nnc(-c2cc3ccccc3nc2OC)o1` [Compound 46, (S)-N-(1-(5-(2-methoxyquinolin-3-yl)-1,3,4-oxadiazol-2-yl)-7-oxononyl)-2-(4-methylpiperazin-1-yl)-2-oxoacetamide], for which, in assay [1], the EC50 is greater than 1000 nM. For the same compound, the IC50 in assay [2] is less than 100 nM; in assay [3] it was 100 to 1000 nM.
The like results for `CCC(=O)CCCCC[C@H](NC(=O)C1CCN(C)CC1)c1nnc(-c2cc3ccccc3nc2OC)o1` [Compound 47, (S)-N-(1-(5-(2-methoxyquinolin-3-yl)-1,3,4-oxadiazol-2-yl)-7-oxononyl)-1-methylpiperidine-4-carboxamide] were, in that order, 100 to 1000 nM, less than 100 nM and 100 to 1000 nM.
On the same counts, the results for `CCC(=O)CCCCC[C@H](NC(=O)Cc1c(C)[nH]c2ccc(OC)cc12)c1nnc(-c2cc3ccccc3nc2OC)o1` [Compound 48, (S)-2-(5-methoxy-2-methyl-1H-indol-3-yl)-N-(1-(5-(2-methoxyquinolin-3-yl)-1,3,4-oxadiazol-2-yl)-7-oxononyl)acetamide] are greater than 1000 nM, less than 100 nM and less than 100 nM.
On the same counts, the results for `CCC(=O)CCCCC[C@H](NC(=O)CCn1c(CC)nc2ccccc21)c1nnc(-c2cc3ccccc3nc2OC)o1` [Compound 50, (S)-3-(2-ethyl-1H-benzo[d]imidazol-1-yl)-N-(1-(5-(2-methoxyquinolin-3-yl)-1,3,4-oxadiazol-2-yl)-7-oxononyl)propanamide] are 100 to 1000 nM, less than 100 nM and 100 to 1000 nM.
`CCC(=O)CCCCC[C@H](NC(=O)CCN(C)C)c1nnc(-c2cc3ccccc3nc2OC)o1` [Compound 51, (S)-3-(dimethylamino)-N-(1-(5-(2-methoxyquinolin-3-yl)-1,3,4-oxadiazol-2-yl)-7-oxononyl)propanamide] came in with an EC50 in assay [1] greater than 1000 nM. The IC50 in assay [2] was less than 100 nM; in assay [3] it was 100 to 1000 nM.
On the same counts, the results for `CCC(=O)CCCCC[C@H](NC(=O)C1CN(C)C1)c1ncc(-c2ccc(-c3ccn[nH]3)cc2)o1` [Compound 53, (S)-N-(1-(5-(4-(1H-pyrazol-5-yl)phenyl)oxazol-2-yl)-7-oxononyl)-1-methylazetidine-3-carboxamide] are greater than 1000 nM, less than 100 nM and 100 to 1000 nM.
On the same counts, the results for `CCC(=O)CCCCC[C@H](NC(=O)C1CN(C)C1)c1ncc(-c2ccc(-c3ccnn3C)cc2)o1` [Compound 54, (S)-1-methyl-N-(1-(5-(4-(1-methyl-1H-pyrazol-5-yl)phenyl)oxazol-2-yl)-7-oxononyl)azetidine-3-carboxamide] are greater than 1000 nM, less than 100 nM and 100 to 1000 nM.
On the same counts, the results for `CCC(=O)CCCCC[C@H](NC(=O)C1CN(C(C)=O)C1)c1ncc(-c2cc3ccccc3nc2OC)o1` [Compound 55, (S)-1-acetyl-N-(1-(5-(2-methoxyquinolin-3-yl)oxazol-2-yl)-7-oxononyl)azetidine-3-carboxamide] are greater than 1000 nM, less than 100 nM and 100 to 1000 nM.
As to `CCC(=O)CCCCC[C@H](NC(=O)C1CN(Cc2ccccc2)C1)c1ncc(-c2cc3ccccc3nc2OC)o1` [Compound 56, (S)-1-benzyl-N-(1-(5-(2-methoxyquinolin-3-yl)oxazol-2-yl)-7-oxononyl)azetidine-3-carboxamide], in assay [1], the EC50 is greater than 1000 nM. Besides, the IC50 in assay [2] was less than 100 nM; in assay [3], 100 to 1000 nM.
In assay [1], `CCC(=O)CCCCC[C@H](NC(=O)C1CNC1)c1ncc(-c2cc3ccccc3nc2OC)o1` [Compound 57, (S)-N-(1-(5-(2-methoxyquinolin-3-yl)oxazol-2-yl)-7-oxononyl)azetidine-3-carboxamide] registered an EC50 greater than 1000 nM. The IC50 in assay [2] is less than 100 nM; in assay [3], 100 to 1000 nM.
`CCC(=O)CCCCC[C@H](NC(=O)[C@@H]1CC(F)(F)CN1C)c1ncc(-c2cc3ccccc3nc2OC)o1` [Compound 58, (S)-4,4-difluoro-N-((S)-1-(5-(2-methoxyquinolin-3-yl)oxazol-2-yl)-7-oxononyl)-1-methylpyrrolidine-2-carboxamide] had an EC50 in assay [1] greater than 1000 nM. Also, the results for the IC50 in assay [2] and in assay [3] were less than 100 nM and 100 to 1000 nM, respectively.
In the case of `CCC(=O)CCCCC[C@H](NC(=O)Cn1ccnn1)c1ncc(-c2cc3ccccc3nc2OC)o1` [Compound 59, (S)-N-(1-(5-(2-methoxyquinolin-3-yl)oxazol-2-yl)-7-oxononyl)-2-(1H-1,2,3-triazol-1-yl)acetamide], the EC50 in assay [1] is greater than 1000 nM. Moreover, the IC50 was less than 100 nM in assay [2] and 100 to 1000 nM in assay [3].
